The record followed here is BindingDB's records for doi:10.1016/s0024-3205(03)00272-8 (Merck Research Laboratories, 2003).

For assay [1], the target named is Metabotropic glutamate receptor 1 (Rattus norvegicus, UniProt P23385).
Assay [2] deals with T1, Alpha-2C adrenergic receptor (Rattus norvegicus, UniProt P22086).
T1 sequence (P22086 whole entry): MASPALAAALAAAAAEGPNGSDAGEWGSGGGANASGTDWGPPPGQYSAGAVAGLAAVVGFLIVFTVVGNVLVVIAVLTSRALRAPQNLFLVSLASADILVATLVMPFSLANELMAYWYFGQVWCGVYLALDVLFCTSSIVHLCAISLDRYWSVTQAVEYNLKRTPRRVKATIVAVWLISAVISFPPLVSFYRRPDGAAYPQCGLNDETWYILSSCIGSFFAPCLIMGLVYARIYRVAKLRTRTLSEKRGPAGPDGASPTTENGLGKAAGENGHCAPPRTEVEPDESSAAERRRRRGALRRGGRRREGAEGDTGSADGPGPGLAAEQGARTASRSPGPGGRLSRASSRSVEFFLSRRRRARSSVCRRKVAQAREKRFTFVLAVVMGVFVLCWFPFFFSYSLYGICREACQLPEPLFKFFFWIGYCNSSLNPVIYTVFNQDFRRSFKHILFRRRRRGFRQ

Assay [3] deals with T2, Retinoic acid receptor RXR-alpha (Rattus norvegicus, UniProt Q05343).
T2 sequence (Q05343 whole entry): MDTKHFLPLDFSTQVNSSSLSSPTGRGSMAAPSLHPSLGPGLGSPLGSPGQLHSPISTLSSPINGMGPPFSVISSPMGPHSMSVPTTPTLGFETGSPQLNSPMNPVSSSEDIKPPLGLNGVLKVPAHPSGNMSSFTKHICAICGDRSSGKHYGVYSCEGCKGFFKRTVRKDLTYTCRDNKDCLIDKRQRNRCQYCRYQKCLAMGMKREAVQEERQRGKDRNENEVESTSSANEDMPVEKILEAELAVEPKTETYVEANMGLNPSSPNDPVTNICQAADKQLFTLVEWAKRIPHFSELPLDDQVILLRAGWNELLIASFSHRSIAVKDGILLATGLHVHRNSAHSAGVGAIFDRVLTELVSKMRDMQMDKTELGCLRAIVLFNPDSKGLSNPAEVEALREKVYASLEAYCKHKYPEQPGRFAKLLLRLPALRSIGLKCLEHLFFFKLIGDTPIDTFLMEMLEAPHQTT

Assay [4] has as its target Metabotropic glutamate receptor 2 (Homo sapiens, UniProt Q14416).

Chain of Metabotropic glutamate receptor 2 (Q14416 whole entry): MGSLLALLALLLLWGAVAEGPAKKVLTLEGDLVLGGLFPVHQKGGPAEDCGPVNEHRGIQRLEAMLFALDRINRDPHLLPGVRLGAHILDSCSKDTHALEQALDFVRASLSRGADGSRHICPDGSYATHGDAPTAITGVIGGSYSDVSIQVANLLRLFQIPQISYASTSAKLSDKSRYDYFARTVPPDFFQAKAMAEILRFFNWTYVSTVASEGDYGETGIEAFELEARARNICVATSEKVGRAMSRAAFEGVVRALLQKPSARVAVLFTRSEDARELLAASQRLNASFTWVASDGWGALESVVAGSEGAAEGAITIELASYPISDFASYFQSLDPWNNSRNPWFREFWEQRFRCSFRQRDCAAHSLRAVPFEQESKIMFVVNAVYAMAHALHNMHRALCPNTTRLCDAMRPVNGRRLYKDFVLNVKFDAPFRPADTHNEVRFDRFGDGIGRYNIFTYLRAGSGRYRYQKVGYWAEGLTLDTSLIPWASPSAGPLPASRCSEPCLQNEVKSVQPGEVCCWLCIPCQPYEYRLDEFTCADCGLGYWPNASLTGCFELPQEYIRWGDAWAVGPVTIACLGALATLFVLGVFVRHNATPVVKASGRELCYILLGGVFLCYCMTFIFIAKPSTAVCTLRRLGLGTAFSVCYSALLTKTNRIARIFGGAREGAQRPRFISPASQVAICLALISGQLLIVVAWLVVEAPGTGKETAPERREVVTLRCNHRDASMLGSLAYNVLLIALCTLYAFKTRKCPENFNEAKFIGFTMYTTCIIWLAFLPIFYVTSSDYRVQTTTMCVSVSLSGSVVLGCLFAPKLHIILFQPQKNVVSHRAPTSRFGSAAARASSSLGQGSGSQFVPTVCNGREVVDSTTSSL
Chain of Metabotropic glutamate receptor 1 (P23385 whole entry): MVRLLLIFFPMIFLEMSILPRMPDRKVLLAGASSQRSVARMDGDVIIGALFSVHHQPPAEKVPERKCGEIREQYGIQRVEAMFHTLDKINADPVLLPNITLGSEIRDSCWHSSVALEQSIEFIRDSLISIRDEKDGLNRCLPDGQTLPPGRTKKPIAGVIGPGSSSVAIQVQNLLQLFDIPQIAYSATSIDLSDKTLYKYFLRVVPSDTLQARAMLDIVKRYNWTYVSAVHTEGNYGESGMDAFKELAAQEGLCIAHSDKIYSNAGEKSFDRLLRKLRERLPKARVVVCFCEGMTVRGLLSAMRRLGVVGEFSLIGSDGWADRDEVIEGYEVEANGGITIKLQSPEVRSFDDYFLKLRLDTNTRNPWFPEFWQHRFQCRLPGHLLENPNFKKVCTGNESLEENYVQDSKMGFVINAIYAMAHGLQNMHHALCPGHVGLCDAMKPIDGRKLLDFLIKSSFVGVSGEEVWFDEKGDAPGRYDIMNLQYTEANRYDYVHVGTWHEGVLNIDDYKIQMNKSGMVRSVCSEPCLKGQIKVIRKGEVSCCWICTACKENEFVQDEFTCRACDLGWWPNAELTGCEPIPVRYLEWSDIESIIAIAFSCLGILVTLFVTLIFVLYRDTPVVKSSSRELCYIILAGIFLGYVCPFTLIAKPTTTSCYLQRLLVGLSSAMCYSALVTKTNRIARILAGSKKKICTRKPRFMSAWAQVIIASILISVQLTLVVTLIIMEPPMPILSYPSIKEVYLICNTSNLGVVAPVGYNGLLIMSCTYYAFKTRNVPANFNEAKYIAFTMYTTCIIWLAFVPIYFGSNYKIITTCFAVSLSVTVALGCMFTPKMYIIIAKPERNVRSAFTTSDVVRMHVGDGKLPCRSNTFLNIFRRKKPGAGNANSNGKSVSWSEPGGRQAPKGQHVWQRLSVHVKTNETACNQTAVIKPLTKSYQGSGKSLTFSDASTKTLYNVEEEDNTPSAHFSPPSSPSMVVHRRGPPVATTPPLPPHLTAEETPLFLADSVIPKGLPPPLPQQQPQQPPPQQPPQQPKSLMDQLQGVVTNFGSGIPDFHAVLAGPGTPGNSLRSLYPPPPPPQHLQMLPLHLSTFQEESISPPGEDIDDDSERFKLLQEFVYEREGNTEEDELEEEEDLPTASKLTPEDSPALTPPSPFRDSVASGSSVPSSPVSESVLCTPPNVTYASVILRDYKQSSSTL

Consider `NC(C(=O)O)c1ccc(C(=O)O)cc1` (centres undefined) [4-(Amino-carboxy-methyl)-benzoic acid], for which affinity in assay [1] was put at a Ki of 1.1 µM. In the case of `COc1cccc(OC)c1OCCNCC1CSc2ccccc2O1` (centres undefined) [NSC_2325], the affinity in assay [2], expressed as Ki, was 7.6 µM.

`CC12NC(Cc3ccccc31)c1ccccc12` (centres undefined) [CAS_180081]: the inhibition constant Ki (usually a measure of affinity in units of concentration, obtained from inhibition or displacement) in assay [3] was 7.6 µM. `NC1(C(=O)O)CCc2cc(C(=O)O)ccc21` (racemic) [AIDA] showed a Ki in assay [4] of 1.1 µM.
